Reference: US5763474A, “Substituted N-arylmethylamino derivatives of cyclobutene-3,4-diones” (American Home Products Corporation, priority 1997, dated 1998)
Like-named read-outs stand apart in the source and are kept apart here. Blank lines part the entries; values can stand above or below the compound they belong to.

How the values were obtained:
[1] = test system: Isolated Rat Bladder Strips; experiment: Inhibition of Contractions in Isolated Rat Bladder Strips (15 mM KCl-enhanced contractile activity); set-up: species or system Sprague-Dawley rats; settings: for activity at 30 µM: read-out: Percent contraction at 30 μM (C); for inhibition at 30 µM: read-out: Percent inhibition at 30 μM (I)
Source text: The smooth muscle relaxing activity of the compounds of this invention was established in accordance with standard pharmaceutically accepted test procedures with representative compounds as follows:
Sprague-Dawley rats (150-200 g) are rendered unconscious by CO2 asphyxiation and then euthanized by cervical dislocation. The bladder is removed into warm (37 deg.C.) physiological salt solution (PSS) of the following composition (mM): NaCl, 118.4; KCl, 4.7; CaCl2, 2.5; […]; NaHCO3, 24.9; KH2 PO4, 1.2; glucose, 11.1; EDTA, 0.023; gassed with […]; pH 7.4. The bladder is opened and then cut into strips 1-2 mm in width and 7-10 mm in length. The strips are subsequently suspended in a 10 mL tissue bath under an initial resting tension of 1.5 g. The strips are held in place by two surgical clips one of which is attached to a fixed hook while the other is attached to an isometric force transducer. […] The carbachol is then washed out and the tissue allowed to relax to its resting level of activity. Following a further 30 minute period of recovery an additional 15 mM KCl are introduced into the tissue bath. This increase in KCl concentration results in a large increase in the amplitude of spontaneous contractions (and initiation of contractions in previously quiescent strips) superimposed upon a small increase in basal tone. Following stabilization of this enhanced level of contractile activity, incremental increases in the concentration of test compound or vehicle are introduced into the tissue bath. Contractile activity is measured for each compound or vehicle concentration during the last minute of a 30 minute challenge.
The isometric force developed by the bladder strips is measured using a […]. The (IC50 concentration) is calculated from this concentration-response curve.

[2] = test system: hypertrophied bladder (detrussor) smooth muscle in conscious female rats; experiment: Inhibition of Spontaneous Contractions In Vivo in the hypertrophied rat bladder model (cystometry, conscious rats); set-up: species or system Female Sprague-Dawley rats
Experimental: In addition, we tested the ability of compounds to inhibit the hyperactivity of hypertrophied bladder (detrussor) smooth muscle in conscious female rats with hypertrophied bladders and thereby alleviate urinary incontinence in rats according to the following protocol described by Malmgren et al., J. Urol. 142:1134, 1989:
Female Sprague-Dawley rats, ranging in weight from 190-210 g are used. Up to 25 animals are prepared each time. After developemnt of bladder hypertrophy 4-8 animals are used per test.
Compounds are dissolved in PEG-200 and administered by gastric gavage or intraveneously in a volume of 5 ml/kg. For primary screening all drugs are administered at the arbitrary dose of 10 mg/kg p.o. to groups of 4 rats.
The animals are anesthetized with halothane. Through a midline incision the bladder and urethra are exposed and a ligature of 4-0 silk is tied around the proximal urethra in the presence of a stainless steel rod (1 mm diameter) to produce a partial occlusion. The rod is then removed. The abdominal region is closed using surgical staples and each rat receives 150,000 units of bicillin C-R. The animals are allowed six weeks to develop sufficient bladder hypertrophy. After six weeks, the ligature is removed under halothane anesthesia and a catheter (PE 60) with a cuff is placed in the dome of the bladder and secured with a purse string suture. The catheter is tunneled under the skin and exteriorized through an opening in the back of the neck. The abdominal incision is sutured and the free end of the catheter sealed. In order to prevent infections the rats receive an injection of bicillin C-R (150000 units/rat). Two days later the animals are used in cystometrical evaluations, The animals are placed in the metabolic cages and the catheter is attached (using a "T" connector) to a Statham pressure transducer (Model P23Db) and to a Harvard infusion pump. A plastic beaker attached to a force displacement transducer (Grass FTO3) is placed under the rat's cage to collect and record urine volume. Animals are allowed 15-30 minutes to rest before the saline infusion (20 ml/hr for 20 minutes) is started for the first cystometry period. Two hours after the first cystometry period, the rats are dosed with the vehicle or the test compound and one hour later a second cystometry is performed.
The following urodynamic variables are recorded:
The mean value of each variable is calculated before and after compound administration. For each compound the changes in the variables measured are compared to the values obtained before treatment and expressed as percent inhibition. The data are also subjected to 2-way analysis of variance to determine significant (p<0.05) changes in the variable measured. The most characteristic finding in this rat model is spontaneous bladder contractions which develop during filling.

[3] = 0.5 h, isolated rat bladder strips, 15 mM KCl, 30 minute challenge, read-out: IC50, inhibition of contractions in isolated rat bladder strips
[4] = 0.5 h, isolated rat bladder strips

- IC50 [1, 3]: 340 ± 220 nM
SMILES: C[C@@H](Nc1c(NCc2ccc(Cl)cc2Cl)c(=O)c1=O)C(C)(C)C [Example 23, (R)-3-(2,4-dichlorobenzylamino)-4-(1,2,2-trimethylpropylamino)-cyclobut-3-ene-1,2-dione]

- IC50 [1, 3]: 9800 ± 5100 nM
SMILES: Cc1cc(Cl)cc(Cl)c1CNc1c(N[C@H](C)C(C)(C)C)c(=O)c1=O [Example 4, (R)-3-(2,4-dichloro-6-methyl-benzylamino)-4-(1,2,2-trimethyl-propylamino)-cyclobut-3-ene-1,2-dione]

- IC50 [1, 3]: 1480 ± 570 nM
SMILES: CC(C)(C)Nc1c(NCc2ccc(Cl)c(Cl)c2)c(=O)c1=O [Example 24, 3-tert-Butylamino-4-(3,4-dichlorobenzylamino)-cyclobut-3-ene-1,2-dione]
- activity at 30 µM [1, 4]: 30%
- inhibition at 30 µM ([1]; isolated rat bladder strips): 32.5 ± 3.1%

- IC50 [1, 3]: 2530 ± 190 nM
SMILES: Cc1cc(Cl)cc(Cl)c1CNc1c(NC(C)C(C)(C)F)c(=O)c1=O (stereo not drawn) [Example 20, 3-(2,4-dichloro-6-methyl-benzylamino)-4-(1,2-dimethyl-2-fluoro-propylamino)-cyclobut-3-ene-1,2-dione]

- IC50 [1, 3]: 2000 ± 800 nM
SMILES: CCC(CC)Nc1c(NCc2ccc(Cl)cc2Cl)c(=O)c1=O [Example 15, 3-(2,4-dichloro-benzylamino)-4-(1-ethyl-propylamino)-cyclobut-3-ene-1,2-dione]

- IC50 [1, 3]: 24000 ± 9300 nM
SMILES: CC(C)(CO)Nc1c(NCc2ccc(Cl)cc2Cl)c(=O)c1=O [Example 22, 3-(2,4-Dichlorobenzylamino)-4-(2-hvdroxy-1,1-dimethylethylamino)-cyclobut-3-ene-1,2-dione]

- IC50 [1, 3]: 220 ± 80 nM
SMILES: Cc1cc(Cl)cc(Cl)c1CNc1c(NC(C)(C)C)c(=O)c1=O [Example 12, 3-tert-butylamino-4-(2,4-dichloro-6-methyl-benzylamino)-cyclobut-3-ene-1,2-dione]
- % Red (F): percent reduction in the total number of spontaneous contractions ([2]; 3 mg/kg p.o.): -53 ± 18%

SMILES: CCC(=O)N(c1c(NCc2c(C)cc(Cl)cc2Cl)c(=O)c1=O)C(C)(C)C [Example 19, N-(tert-butyl)-N-[2-(2,4-Dichloro-6-methyl-benzylamino)-3,4-dioxo-cylobut-1-enyl]-propionamide]
- activity at 30 µM [1, 4]: 92.5 ± 44.2%

SMILES: CCCC(=O)N(Cc1c(C)cc(Cl)cc1Cl)c1c(NC(C)(C)CC)c(=O)c1=O [Example 17, N-(2,4-Dichloro-6-methyl-benzyl)-N-[2-(1,1-dimethyl-2proplylamino)-3,4-dioxo-cyclobut-1-envl]-butyramide]
- activity at 30 µM [1, 4]: 245 ± 15%
- % Red (F): percent reduction in the total number of spontaneous contractions ([2]; 10 mg/kg p.o.): -87 ± 2%

- IC50 [1, 3]: 2000 ± 1000 nM
SMILES: CC(Nc1c(NCc2ccc(Cl)cc2Cl)c(=O)c1=O)C(C)(C)C (stereo not drawn) [Example 2, 3-(2,4-Dichlorobenzylamino)-4-(1,2,2-trimethylproylamino)-cyclobut-3-ene-1,2-dione]

SMILES: CCCC(=O)N(Cc1ccc(Cl)cc1Cl)c1c(NC(C)(C)CC)c(=O)c1=O [Example 8, N-(2,4-dichloro-benzyl)-N-[2-(1,1-dimethyl-propylamino)-3,4-dioxo-cyclobut-1-enyl]-butyramide]
- activity at 30 µM [1, 4]: 82.8 ± 26%
- inhibition at 30 µM ([1]; isolated rat bladder strips): 10.2%

- IC50 [1, 3]: 110 ± 2 nM
- IC50 ([1]; Rattus norvegicus, prior lot of this compound, mp. 195-196° C., n = 4, read-out: IC50, prior lot): 210 ± 40 nM
SMILES: CCC(C)(C)Nc1c(NCc2ccc(Cl)cc2Cl)c(=O)c1=O [Example 6, 3-(2,4-Dichlorobenzylamino)-4-(1,1-dimethylpropylamino)-cyclobut-3-ene-1,2-dione]
- % Red (F): percent reduction in the total number of spontaneous contractions ([2]; 1 mg/kg p.o., prior lot, mp. 195-196° C.): -40 ± 13%
- % Red (F): percent reduction in the total number of spontaneous contractions ([2]; 3 mg/kg p.o., prior lot, mp. 195-196° C.): -58 ± 9%
- % Red (F): percent reduction in the total number of spontaneous contractions ([2]; 10 mg/kg p.o., prior lot, mp. 195-196° C.): -68 ± 10%

- IC50 [1, 3]: 200 ± 60 nM
SMILES: CCC(C)(C)Nc1c(NCc2c(C)cc(Cl)cc2Cl)c(=O)c1=O [Example 9, 3-(2,4-Dichloro-6-methyl-benzylamino)-4-(1,1-dimethyl-propylamino)-cyclobut-3-ene-1 2-dione]
- % Red (F): percent reduction in the total number of spontaneous contractions ([2]; 1 mg/kg p.o.): -63 ± 13%
- % Red (F): percent reduction in the total number of spontaneous contractions ([2]; 3 mg/kg p.o.): -82 ± 5%

- IC50 [1, 3]: 15800 ± 50 nM
SMILES: CCC(C)(C)Nc1c(N(Cc2ccc(Cl)cc2Cl)C(C)=O)c(=O)c1=O [Example 7, N-(2,4-dichloro-benzyl)-N-[2-(1,1-dimethyl-propylamino)-3,4-dioxo-cyclobut-1-enyl]-acetamide]

SMILES: CCC(C)(C)Nc1c(N(Cc2c(C)cc(Cl)cc2Cl)C(C)=O)c(=O)c1=O [Example 18, N-(2,4-Dichloro-6-methyl-benzyl)-N-[2-(1,1-dimethyl-propylamino)-3,4-dioxo-cyclobut-1-enyl]-acetamide]
- inhibition at 30 µM ([1]; isolated rat bladder strips): 26 ± 13.8%

- IC50 [1, 3]: 1300 ± 600 nM
SMILES: CC(C)(C)Nc1c(NCc2ccc(Cl)cc2Cl)c(=O)c1=O [Example 11, 3-(t-Butylamino)-4-(2,4-dichlorobenzylamino) cyclobut-3-ene-1,2-dione]

SMILES: CCC(CC)Nc1c(NCc2ccc(Cl)c(Cl)c2)c(=O)c1=O [Example 14, 3-(3,4-Dichloro-benzylamino)-4-(1-ethyl-propylamino)-cyclobut-3-ene-1,2-dione]
- inhibition at 30 µM ([1]; isolated rat bladder strips): 22 ± 5.9%

- IC50 [1, 3]: 9350 ± 460 nM
SMILES: Cc1cc(Cl)cc(Cl)c1CNc1c(NCC(F)(F)C(F)(F)F)c(=O)c1=O [Example 16]
- inhibition at 30 µM ([1]; isolated rat bladder strips): 36 ± 3.2%

- IC50 [1, 3]: 8900 ± 4000 nM
SMILES: CCC(C)(C)Nc1c(NCc2ccc(Cl)c(Cl)c2)c(=O)c1=O [Example 25]
- activity at 30 µM [1, 4]: 57.9 ± 4.2%

- IC50 [1, 3]: 4500 ± 4200 nM
SMILES: CCC(C)(C)Nc1c(N(Cc2c(C)cc(Cl)cc2Cl)C(=O)OC(C)(C)C)c(=O)c1=O [Example 26, (2,4-Dichloro-6-methyl-benzyl)-[2-(1,1-dimethyl-propylamino)-3,4-dioxo-cyelobut-1-enyl]-carbamic acid tert-butyl ester]
